Source: publication PMC10044120, “Potent and selective covalent inhibition of the papain-like protease from SARS-CoV-2” (Nature Communications, 2023)
Where “and” joins values, the source holds several entries; their conditions need not be identical. Equal entries are not always repeated. Where two headings read alike, the source gives them in different places.

Key:
Vero E6 cells = settings: African green monkey, 48 h
PLpro from SARS-CoV-2 [1] = target: T1, PLpro from SARS-CoV-2 (Severe acute respiratory syndrome coronavirus 2, UniProt P0DTD1); test: biochemical; format: biochemical; settings: for remaining activity at 100 µM: inhibitor 100.00 uM; for remaining activity at […]: read-out: % Plpro activity; for IC50: after 30-min incubation; for remaining activity at 0.02 µM: inhibitor 0.02 uM; for remaining activity at 2.01 µM: inhibitor 2.01 uM; for remaining activity at 6.34 µM: inhibitor 6.34 uM
in vitro = settings: African green monkey, cytotoxicity, %cell viability
[2] = test system: SARS-CoV-2 isolate USA-WA1/2020; test: microbe, parasite or virus in culture; settings: for inhibition at 2.08 µM: Severe acute respiratory syndrome coronavirus 2, Vero C1008, read-out: cytopathic effect, % cell viability, [inhibitor] 2.08 uM; for inhibition at […]: Severe acute respiratory syndrome coronavirus 2, Vero C1008, read-out: cytopathic effect, % cell viability
[3] = test system: SARS-CoV-2 isolate USA-WA1/2020; settings: for inhibition: read-out: cytopathic effect, % cell viability, duplicate wells
PLpro from SARS-CoV-2 [4] = target: T1, PLpro from SARS-CoV-2; test: biochemical; format: biochemical; settings: fluorogenic peptide assay, varied preincubation time
PLpro = PLpro (Severe acute respiratory syndrome coronavirus 2, UniProt P0DTD1); test: Intact protein ESI-MS to assess covalent adduct formation; format: binding, SARS-CoV-2; parameters: unit not given here
[5] = purified PLpro, Z-RLRGG-AMC substrate

Structure (SMILES) | cytotoxicity, %cell viability (Vero E6 cells; 2.08 µM) | cytotoxicity, %cell viability (Vero E6 cells; 8.33 µM) | cytotoxicity, %cell viability (Vero E6 cells; 16.65 µM) | remaining activity at 100 µM (PLpro from SARS-CoV-2 [1]; 0.5 h) | remaining activity at […] (PLpro from SARS-CoV-2 [1]; 0.5 h) | viability at 48 h, 2.08 µM (in vitro) | viability at 48 h, 8.33 µM (in vitro) | viability at 48 h, 16.65 µM (in vitro) | inhibition at 2.08 µM ([2]; duplicate wells) | inhibition ([3]; [inhibitor] 2.08 uM, 2.08 µM) | IC50 (PLpro from SARS-CoV-2 [1]; [5]) | Time dep. (time-dependent inhibition) (PLpro from SARS-CoV-2 [4]) | inhibition at […] [2] | cytotoxicity, %cell viability (Vero E6 cells; 16.67 µM) | cytotoxicity, %cell viability (Vero E6 cells; 33.33 µM) | remaining activity at 0.02 µM (PLpro from SARS-CoV-2 [1]; 0.5 h) | remaining activity at 2.01 µM (PLpro from SARS-CoV-2 [1]; 0.5 h) | remaining activity at 6.34 µM (PLpro from SARS-CoV-2 [1]; 0.5 h) | viability at 48 h, 16.67 µM (in vitro) | viability at 48 h, 33.33 µM (in vitro) | further results
COC(=O)CCc1ccccc1C(=O)N[C@H](C)c1cccc2ccccc12 [Compound 3, methyl (R)−3-(2-((1-(naphthalen-1-yl)ethyl)carbamoyl)phenyl)propanoate] | 99.61% | 97.36% | 90.64% | 78.6% | 119% and 108% | 105% | 93.2% | 92% | 7.81% | 8.63% | – | – | – | – | – | – | – | – | – | – | –
C[C@@H](NC(=O)c1ccccc1CCC(=O)NN)c1cccc2ccccc12 [Compound 5, (R)-2-(3-hydrazineyl-3-oxopropyl)-N-(1-(naphthalen-1-yl)ethyl)benzamide] | 100.12% | 100.79% | 89.16% | 13.9% | 103% and 109% | 101% | 97% | 94.8% | 11.2% | 7.12% | 24 µM | No | 11.2% | – | – | – | – | – | – | – | remaining activity at 19.5 µM (PLpro from SARS-CoV-2 [1]; 0.5 h, inhibitor 19.50 uM): 46.4%; inhibition at 8.33 µM ([2]; Severe acute respiratory syndrome coronavirus 2, Vero C1008, read-out: cytopathic effect, % cell viability, [inhibitor] 8.33 uM, duplicate wells): 8.24%; inhibition at 16.65 µM ([2]; Severe acute respiratory syndrome coronavirus 2, Vero C1008, read-out: cytopathic effect, % cell viability, [inhibitor] 16.65 uM, duplicate wells): 2.95%; inhibition ([3]; [inhibitor] 8.33 uM, 8.33 µM): 8.31%; inhibition ([3]; [inhibitor] 16.65 uM, 16.65 µM): 2.6%
CC(=O)Nc1ccc(CCC(=O)NNC(=O)CCl)c(C(=O)N[C@H](C)c2cccc3ccccc23)c1 [Compound 10, (R)-5-acetamido-2-(3-(2-(2-chloroacetyl)hydrazineyl)-3-oxopropyl)-N-(1-(naphthalen-1-yl)ethyl)benzamide] | 80.200% | 79.780% | – | – | – | 92.2% | 84.4% | – | 2.2% | 1.32% | – | – | – | 73.170% | 66.030% | 90.3% | 80.3% | 37.2% | 81.5% | 73.4% | Measured adduct mass (PLpro): 460; remaining activity at 0.06 µM (PLpro from SARS-CoV-2 [1]; 0.5 h, inhibitor 0.06 uM): 102%; IC50 (PLpro from SARS-CoV-2 [1]; […]): 4.4 µM
C[C@@H](NC(=O)c1ccccc1CCC(=O)NNC(=O)CC#N)c1cccc2ccccc12 [Compound 11, (R)-2-(3-(2-(2-cyanoacetyl)hydrazineyl)-3-oxopropyl)-N-(1-(naphthalen-1-yl)ethyl)benzamide] | 98.90% | 91.20% | – | – | – | 101% | 94% | – | 8% | 4.7% | 8 µM | not and No | 9.7% | 87.90% | 80.50% | 84.4% | 71.3% | 46.4% | 88.6% | 80.8% | remaining activity at 0.2 µM (PLpro from SARS-CoV-2 [1]; 0.5 h, inhibitor 0.20 uM): 89.9%; remaining activity at 20 µM (PLpro from SARS-CoV-2 [1]; 0.5 h, inhibitor 20.00 uM): 41.4%; remaining activity at 200 µM (PLpro from SARS-CoV-2 [1]; 0.5 h, inhibitor 200.00 uM): 5.83%; EC50 (cytopathic effect) ([3]; SARS-CoV-2-infected Vero E6 cells, 48 h): No CPE
